Publication PMC4957640 (Bioorganic & medicinal chemistry, 2016)

What was measured:
Format in all cases: biochemical
[1] = molecular target: cloned human κ opioid receptor (KOR) (Homo sapiens, UniProt P41145); experiment: Inhibition of U69,593-stimulated [35S]GTPγS binding; details: for δ/κ: ratio of Ke values, selectivity for KOR relative to DOR (fold)
[2] = molecular target: cloned human δ opioid receptor (DOR) (Homo sapiens, UniProt P41143); experiment: Inhibition of DPDPE-stimulated [35S]GTPγS binding
Sequence of cloned human δ opioid receptor (DOR) (P41143 whole entry): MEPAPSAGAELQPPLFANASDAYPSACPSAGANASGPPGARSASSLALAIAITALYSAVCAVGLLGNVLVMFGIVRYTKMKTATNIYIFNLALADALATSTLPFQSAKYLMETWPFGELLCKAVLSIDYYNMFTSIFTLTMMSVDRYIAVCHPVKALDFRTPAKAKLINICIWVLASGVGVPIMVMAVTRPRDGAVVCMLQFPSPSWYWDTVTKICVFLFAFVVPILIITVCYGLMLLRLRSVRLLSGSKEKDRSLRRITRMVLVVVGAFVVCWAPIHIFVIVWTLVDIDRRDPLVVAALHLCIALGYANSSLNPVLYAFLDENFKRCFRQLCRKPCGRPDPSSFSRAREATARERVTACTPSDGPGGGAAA

[3] = molecular target: cloned human μ opioid receptor (MOR) (Homo sapiens, UniProt P35372); experiment: Inhibition of DAMGO-stimulated [35S]GTPγS binding
Sequence of cloned human μ opioid receptor (MOR) (P35372 whole entry): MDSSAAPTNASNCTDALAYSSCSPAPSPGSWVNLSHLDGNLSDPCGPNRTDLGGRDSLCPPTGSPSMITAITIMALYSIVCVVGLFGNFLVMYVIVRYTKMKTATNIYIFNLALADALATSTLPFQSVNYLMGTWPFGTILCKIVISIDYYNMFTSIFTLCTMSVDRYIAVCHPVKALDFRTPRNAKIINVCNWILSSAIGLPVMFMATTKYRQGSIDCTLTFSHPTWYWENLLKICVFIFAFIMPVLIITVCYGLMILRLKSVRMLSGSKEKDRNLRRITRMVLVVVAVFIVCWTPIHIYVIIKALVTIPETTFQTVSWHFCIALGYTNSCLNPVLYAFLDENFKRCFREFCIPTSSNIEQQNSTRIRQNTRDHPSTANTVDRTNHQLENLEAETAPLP

Sequence of cloned human κ opioid receptor (KOR) (P41145 whole entry): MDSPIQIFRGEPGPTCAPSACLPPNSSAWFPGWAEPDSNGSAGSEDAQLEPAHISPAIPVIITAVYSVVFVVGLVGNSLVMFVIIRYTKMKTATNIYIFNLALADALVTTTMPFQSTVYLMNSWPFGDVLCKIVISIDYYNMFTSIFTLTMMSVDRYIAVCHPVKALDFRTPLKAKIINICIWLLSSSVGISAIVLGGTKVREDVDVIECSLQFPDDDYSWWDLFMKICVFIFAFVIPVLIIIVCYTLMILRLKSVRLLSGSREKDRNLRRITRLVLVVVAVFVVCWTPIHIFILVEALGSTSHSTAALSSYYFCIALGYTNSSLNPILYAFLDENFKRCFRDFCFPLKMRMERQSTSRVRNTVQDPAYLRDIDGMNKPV

Compound | Kb [1] | δ/κ [1] | Kb [2] | Kb [3]
CC(C)[C@@H](CN1CCC(c2ccncc2)CC1)NC(=O)[C@H]1Cc2ccc(O)cc2CN1 [Compound 4a, (3R)-7-Hydroxy-N-{(1S)-2-methyl-1-[(4-pyridin-4-ylpiperidin-1-yl)methyl]propyl}-1,2,3,4-tetrahydroisoquinoline-3-carboxamide] | 0.51 ± 0.14 nM | 1,353 | 690 ± 250 nM | 57.1 ± 15 nM
CC(C)[C@@H](CN1CCC(c2ccccn2)CC1)NC(=O)[C@H]1Cc2ccc(O)cc2CN1 [Compound 2, (3R)-7-Hydroxy-N-{(1S)-2-methyl-1-[(4-pyridin-2-ylpiperidin-1-yl)methyl]propyl}-1,2,3,4-tetrahydroisoquinoline-3-carboxamide] | 0.43 ± 0.12 nM | 1,372 | 590 ± 130 nM | 14.5 ± 2.6 nM
CC(C)[C@@H](CN1CCC(C)(c2ccncc2)CC1)NC(=O)[C@H]1Cc2ccc(O)cc2CN1 [Compound 4b, (3R)-7-Hydroxy-N-{(1S)-2-methyl-1-[(4-methyl-4-pyridin-4-ylpiperidin-1-yl)methyl]propyl}-1,2,3,4-tetrahydroisoquinoline-3-carboxamide] | 1.75 ± 0.65 nM | 1,434 | 2510 nM | 154 ± 56 nM
CC(C)[C@@H](CN1CCC(c2cccnc2)CC1)NC(=O)[C@H]1Cc2ccc(O)cc2CN1 [Compound 3a, (3R)-7-Hydroxy-N-{(1S)-2-methyl-1-[(4-pyridin-3-ylpiperidin-1-yl)methyl]propyl}-1,2,3,4-tetrahydroisoquinoline-3-carboxamide] | 0.51 ± 0.08 nM | 2,235 | 1140 ± 70 nM | 45.4 ± 15 nM
CC(C)[C@@H](CN1CCC(C)(c2cccnc2)CC1)NC(=O)[C@H]1Cc2ccc(O)cc2CN1 [Compound 3b, (3R)-7-Hydroxy-N-{(1S)-2-methyl-1-[(4-methyl-4-pyridin-3-ylpiperidin-1-yl)methyl]propyl}-1,2,3,4-tetrahydroisoquinoline-3-carboxamide] | 0.18 ± 0.01 nM | >16,700 | > 3000 nM | 49.2 ± 14 nM
